Assay results as given in PubChem BioAssay (NCI).
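Growth conditions: 96-well plates. Treatment: test compound, 48 hours, 5 concentrations. Analysis: linear interpolation between bracketing concentrations; unreached endpoints set to highest concentration. Definition used: TGI = concentration required for complete inhibition of growth.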

Key:
Assay in all cases: DTP human tumour cell line panel, 48 h
OVCAR-5 ovarian = test system: OVCAR-5 ovarian
CCRF-CEM leukemia = test system: CCRF-CEM leukemia
HOP-62 NSCLC = test system: HOP-62 NSCLC
NCI-H460 lung = test system: NCI-H460 lung
MCF7 breast = test system: MCF7 breast
K-562 leukemia = test system: K-562 leukemia
NCI-H226 lung = test system: NCI-H226 lung
SW-620 colon = test system: SW-620 colon
DU-145 prostate = test system: DU-145 prostate
MDA-N = test system: MDA-N
U251 CNS = test system: U251 CNS
A549 NSCLC = test system: A549 NSCLC
SK-MEL-28 melanoma = test system: SK-MEL-28 melanoma
OVCAR-3 ovarian = test system: OVCAR-3 ovarian
MDA-MB-231 breast = test system: MDA-MB-231 breast
MALME-3M melanoma = test system: MALME-3M melanoma
SR leukemia = test system: SR leukemia
UACC-62 melanoma = test system: UACC-62 melanoma
OVCAR-8 ovarian = test system: OVCAR-8 ovarian
SF-539 CNS = test system: SF-539 CNS
SNB-75 CNS = test system: SNB-75 CNS
COLO 205 colon = test system: COLO 205 colon
M14 melanoma = test system: M14 melanoma
HCT-15 colon = test system: HCT-15 colon
BT-549 breast = test system: BT-549 breast
OVCAR-4 ovarian = test system: OVCAR-4 ovarian
MOLT-4 leukemia = test system: MOLT-4 leukemia
ACHN renal = test system: ACHN renal
LOX IMVI melanoma = test system: LOX IMVI melanoma
786-0 renal = test system: 786-0 renal
RXF 393 renal = test system: RXF 393 renal
NCI/ADR-RES ovarian = test system: NCI/ADR-RES ovarian
SK-MEL-5 melanoma = test system: SK-MEL-5 melanoma
T-47D breast = test system: T-47D breast
MDA-MB-435 = test system: MDA-MB-435
HCT-116 colon = test system: HCT-116 colon
SF-268 CNS = test system: SF-268 CNS
HS 578T breast = test system: HS 578T breast
SK-OV-3 ovarian = test system: SK-OV-3 ovarian
CAKI-1 renal = test system: CAKI-1 renal
HT29 colon = test system: HT29 colon
RPMI-8226 leukemia = test system: RPMI-8226 leukemia
NCI-H522 lung = test system: NCI-H522 lung
SF-295 CNS = test system: SF-295 CNS
HOP-92 NSCLC = test system: HOP-92 NSCLC
IGROV1 ovarian = test system: IGROV1 ovarian
UO-31 renal = test system: UO-31 renal
KM12 colon = test system: KM12 colon
HCC-2998 colon = test system: HCC-2998 colon
NCI-H23 lung = test system: NCI-H23 lung
SK-MEL-2 melanoma = test system: SK-MEL-2 melanoma
A498 renal = test system: A498 renal
HL-60(TB) leukemia = test system: HL-60(TB) leukemia
SN12C renal = test system: SN12C renal
EKVX NSCLC = test system: EKVX NSCLC
TK-10 renal = test system: TK-10 renal
SNB-19 CNS = test system: SNB-19 CNS
PC-3 prostate = test system: PC-3 prostate
UACC-257 melanoma = test system: UACC-257 melanoma

Measured: TGI

O=C(Nc1ccccc1)N1CCNC1=S
85.8 µM: HCC-2998 colon
98.2 µM: RXF 393 renal
> 100 µM: OVCAR-5 ovarian | CCRF-CEM leukemia | HOP-62 NSCLC | NCI-H460 lung | MCF7 breast | K-562 leukemia | NCI-H226 lung | SW-620 colon | DU-145 prostate | MDA-N | U251 CNS | A549 NSCLC | SK-MEL-28 melanoma | OVCAR-3 ovarian | MDA-MB-231 breast | MALME-3M melanoma | SR leukemia | UACC-62 melanoma | OVCAR-8 ovarian | SF-539 CNS | SNB-75 CNS | COLO 205 colon | M14 melanoma | HCT-15 colon | BT-549 breast | OVCAR-4 ovarian | MOLT-4 leukemia | ACHN renal | LOX IMVI melanoma | 786-0 renal | NCI/ADR-RES ovarian | SK-MEL-5 melanoma | T-47D breast | MDA-MB-435 | HCT-116 colon | SF-268 CNS | HS 578T breast | SK-OV-3 ovarian | CAKI-1 renal | HT29 colon | RPMI-8226 leukemia | NCI-H522 lung | SF-295 CNS | HOP-92 NSCLC | IGROV1 ovarian | UO-31 renal | KM12 colon | NCI-H23 lung | SK-MEL-2 melanoma | A498 renal | HL-60(TB) leukemia | SN12C renal | EKVX NSCLC

NC(=S)N/N=C/c1cc(CN2CCOCC2)c(N)cn1
94.3 µM: NCI/ADR-RES ovarian
89.4 µM: SNB-75 CNS
> 100 µM: OVCAR-5 ovarian | CCRF-CEM leukemia | HOP-62 NSCLC | NCI-H460 lung | MCF7 breast | K-562 leukemia | TK-10 renal | SW-620 colon | DU-145 prostate | MDA-N | U251 CNS | OVCAR-3 ovarian | MDA-MB-231 breast | MALME-3M melanoma | SR leukemia | SNB-19 CNS | UACC-62 melanoma | OVCAR-8 ovarian | COLO 205 colon | HCT-15 colon | BT-549 breast | MOLT-4 leukemia | ACHN renal | LOX IMVI melanoma | 786-0 renal | RXF 393 renal | SK-MEL-5 melanoma | T-47D breast | MDA-MB-435 | HCT-116 colon | SF-268 CNS | HS 578T breast | PC-3 prostate | SK-OV-3 ovarian | CAKI-1 renal | HT29 colon | RPMI-8226 leukemia | UACC-257 melanoma | SF-295 CNS | IGROV1 ovarian | UO-31 renal | KM12 colon | NCI-H23 lung | SK-MEL-2 melanoma | A498 renal | HL-60(TB) leukemia | SN12C renal | EKVX NSCLC
50.9 µM: M14 melanoma
45.8 µM: NCI-H226 lung
84.2 µM: SF-539 CNS

COc1ccccc1NC(=O)C(C#N)=C(SC)SC
> 100 µM: OVCAR-5 ovarian | CCRF-CEM leukemia | HOP-62 NSCLC | NCI-H460 lung | MCF7 breast | K-562 leukemia | NCI-H226 lung | TK-10 renal | SW-620 colon | DU-145 prostate | MDA-N | U251 CNS | A549 NSCLC | SK-MEL-28 melanoma | OVCAR-3 ovarian | MDA-MB-231 breast | MALME-3M melanoma | SR leukemia | SNB-19 CNS | UACC-62 melanoma | SF-539 CNS | COLO 205 colon | M14 melanoma | HCT-15 colon | BT-549 breast | OVCAR-4 ovarian | MOLT-4 leukemia | ACHN renal | LOX IMVI melanoma | 786-0 renal | RXF 393 renal | SK-MEL-5 melanoma | T-47D breast | MDA-MB-435 | HCT-116 colon | SF-268 CNS | HS 578T breast | PC-3 prostate | SK-OV-3 ovarian | CAKI-1 renal | HT29 colon | RPMI-8226 leukemia | NCI-H522 lung | UACC-257 melanoma | SF-295 CNS | HOP-92 NSCLC | IGROV1 ovarian | UO-31 renal | KM12 colon | HCC-2998 colon | NCI-H23 lung | SK-MEL-2 melanoma | A498 renal | HL-60(TB) leukemia | SN12C renal | EKVX NSCLC

CC1C2CC(C(C3C(=O)C4CC3C(C)(C)C4C)C2=O)C1(C)C (stereo not drawn)
> 100 µM: OVCAR-5 ovarian | CCRF-CEM leukemia | HOP-62 NSCLC | NCI-H460 lung | MCF7 breast | K-562 leukemia | NCI-H226 lung | TK-10 renal | SW-620 colon | DU-145 prostate | MDA-N | U251 CNS | A549 NSCLC | SK-MEL-28 melanoma | OVCAR-3 ovarian | MDA-MB-231 breast | MALME-3M melanoma | SR leukemia | SNB-19 CNS | UACC-62 melanoma | OVCAR-8 ovarian | SF-539 CNS | SNB-75 CNS | COLO 205 colon | M14 melanoma | BT-549 breast | OVCAR-4 ovarian | MOLT-4 leukemia | ACHN renal | 786-0 renal | RXF 393 renal | SK-MEL-5 melanoma | T-47D breast | MDA-MB-435 | HCT-116 colon | SF-268 CNS | HS 578T breast | PC-3 prostate | SK-OV-3 ovarian | CAKI-1 renal | HT29 colon | NCI-H522 lung | UACC-257 melanoma | SF-295 CNS | HOP-92 NSCLC | IGROV1 ovarian | UO-31 renal | KM12 colon | HCC-2998 colon | NCI-H23 lung | A498 renal | HL-60(TB) leukemia | SN12C renal | EKVX NSCLC
